For the test, the system named is IL-17A. Briefly: Pro-inflammatory cytokines in sera of CIA Collagen mice (ELISA, day 58): IL-17A. The test is classed as in vivo. As to conditions: Dexamethasone oral 1 mg/kg, 20 times between day 28 and 57. Here is the method:
Critical administration 124 disclosed herein is further described below. Q5D represents administration 5 days a part. TBSV·pLIp1 and wt TBSV shown in Table 1 may include liquid form that are not sterile and stored in −20° C. TBSV·pLIp1 may be given at the dose of 50 μG/100 μL Male DBA/1J mice (8 weeks; Envigo, Italy) may be used for these studies. Mice may be housed in individual cages (two for each group) and maintained under a 12:12 light-dark cycle at 21° C.±1° C. and 50%±5% humidity. The animals may be acclimated to their environment for 1 week and had ad libitum access to tap water and standard rodent diet. All animal experiments may be complied with regulations in Italy (D.M. 116192), Europe (O.J of E.C. L 358/112/18/1986), and the United States (Animal Welfare Assurance Number A5594-01, Department of Health and Human Services, USA). […] Arthritis was assessed by using qualitative severity score system and hind paw volume (mL) measured by a plethysmometer on day 20, 22, 24, 26, 28, 30, 32, 34, 36, 38, 40, 42, 44, 46 48, 50, 52, 54, 56 and 58. Body weight was recorded on day 0, 6, 13, 16, 18, 20, 22, 24, 26, 28, 30, 32, 34, 36, 38, 40, 42, 44, 46, 50, 52, 54, 56 and 58. […]
A general note: In an ELISA, binding on a coated surface is turned into a signal by an enzyme label.

Each structure is given as a SMILES string.

For `C[C@@H]1C[C@H]2[C@@H]3CCC4=CC(=O)C=C[C@]4(C)[C@@]3(F)[C@@H](O)C[C@]2(C)[C@@]1(O)C(=O)CO` [Dexamethasone, dexamethasone], the “IL-17A, % of reduction vs CIA Collagen” value was determined as 25.07%.

The record behind these values is patent US12527849B2, “Apparatus for determining administration form of a composition of an engineered virus-based nanoparticle for a treatment of an autoimmune condition” (Diamante Srl, priority 2021, dated 2026).
